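A five-concentration, 48-hour dose response in 96-well plates underlies each endpoint, interpolated linearly between surrounding concentrations. GI50 marks 50% less growth. Definition used: TGI = concentration required for complete inhibition of growth.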
What was measured:
Test in all cases: growth of human tumour cells (NCI), 48 h
[1] = tested on: NCI-H23 lung
[2] = tested on: RXF 393 renal
[3] = tested on: COLO 205 colon
[4] = tested on: MALME-3M melanoma
[5] = tested on: KM12 colon
[6] = tested on: SF-539 CNS
[7] = tested on: A498 renal
[8] = tested on: UO-31 renal
[9] = tested on: SNB-75 CNS
[10] = tested on: OVCAR-3 ovarian

Structure (SMILES)	GI50 [1]	TGI [1]	GI50 [2]	TGI [2]	GI50 [3]	TGI [3]	GI50 [4]	TGI [4]	GI50 [5]	TGI [5]	GI50 [6]	TGI [6]	GI50 [7]	TGI [7]	GI50 [8]	TGI [8]	GI50 [9]	TGI [9]	GI50 [10]	TGI [10]
CC[C@H]1[C@@H]2C=C[C@@H]3[C@H]4C/C=C\C(=O)NCCC[C@@H]5NC(=O)/C(=C(O)/C=C/[C@@H]4C[C@@H]3[C@H]2C[C@H]1C)C5=O	1810 nM	4280 nM	236 nM	840 nM	3240 nM	8440 nM	1390 nM	2830 nM	3030 nM	9880 nM	1300 nM	2720 nM	1670 nM	3080 nM	546 nM	1910 nM	415 nM	1580 nM	202 nM	556 nM
CCOC(=O)Nc1ccc(C)c(NC(=O)OCC)c1		> 100000 nM		> 100000 nM		> 100000 nM		> 100000 nM		> 100000 nM		> 100000 nM		> 100000 nM		> 100000 nM		> 100000 nM		> 100000 nM
COc1cc(NS(C)(=O)=O)ccc1Nc1c2ccccc2nc2c1[nH]c1ccc(NC3OC(CO)C(O)C(O)C3O)cc12 (centres undefined)		270 nM		610 nM		2760 nM		1430 nM		1210 nM		40.5 nM		881 nM		1190 nM		388 nM		2000 nM
COc1c(OC[C@H](O)CN2CCOCC2)ccc2c3n(c(=NC(=O)c4cccnc4C)nc12)CCN3	> 50000 nM	> 50000 nM	192 nM	2380 nM	918 nM	> 50000 nM	982 nM	> 50000 nM	40700 nM	> 50000 nM	543 nM	9910 nM	167 nM	1850 nM	263 nM	> 50000 nM	20 nM	1180 nM	432 nM	> 50000 nM
CC(=O)OC12C=CC(=O)N1c1ccccc1C(=O)O2 (centres undefined)		> 100000 nM		> 100000 nM		> 100000 nM		> 85800 nM		> 100000 nM		> 100000 nM	> 100000 nM	> 100000 nM		> 100000 nM		> 100000 nM		> 100000 nM
CCSc1ncnc2c1ncn2C1OC(CO)C(O)C1O (centres undefined)	434 nM	> 100000 nM	16000 nM	> 90200 nM	777 nM	> 100000 nM	9410 nM	> 100000 nM	702 nM	> 100000 nM	437 nM	> 100000 nM	81 nM	1920 nM	405 nM	> 100000 nM	> 34100 nM	> 100000 nM	312 nM	> 79700 nM
CN=C1CC2c3cc(OC)c(OC)cc3CCN2C2=C1C(=O)CC(C)(C)C2 (centres undefined)		> 100000 nM		> 100000 nM		> 100000 nM		> 100000 nM		> 100000 nM		> 100000 nM		> 100000 nM		> 100000 nM		> 100000 nM		> 100000 nM
O=C(/C=C/c1cccc2ccccc12)c1ccccc1Cl		28500 nM		32400 nM		> 100000 nM		30200 nM		21300 nM		31900 nM		29500 nM		28000 nM		30500 nM		25600 nM
NCCNc1c2c(c(NCCN)c3[nH]ccc13)C(=O)c1ccccc1C2=O	74.1 nM	475 nM	48.8 nM	525 nM	280 nM	5800 nM	177 nM	658 nM	191 nM	957 nM	44.4 nM	885 nM	231 nM	565 nM	13800 nM	> 60000 nM	317 nM	945 nM	< 48.9 nM	251 nM
Nc1c(C(=O)Nc2ccncc2)sc2nc3c(cc12)CCCCCCCC3	900 nM	1740 nM	938 nM	1700 nM	997 nM	2180 nM	870 nM	1660 nM	877 nM	1620 nM	878 nM	1600 nM	871 nM	1580 nM	772 nM	1490 nM	819 nM	1530 nM	946 nM	1680 nM
CN(C)CC1CCCC/C1=N/OC(=O)c1ccc(Cl)cc1 (centres undefined)		> 100000 nM		> 100000 nM		> 100000 nM		> 100000 nM		> 100000 nM		> 100000 nM		> 100000 nM		> 100000 nM		> 100000 nM		> 100000 nM
CN1CCOC(c2ccccc2)O1 (centres undefined)		> 100000 nM		> 100000 nM		> 100000 nM		> 100000 nM		> 100000 nM		> 100000 nM		> 100000 nM		> 100000 nM		> 100000 nM		> 100000 nM
Cc1ccc(NC(=O)CC2CC2)cc1-c1ccc(C(=O)NCC2CC2)cc1	> 25000 nM	> 25000 nM	> 25000 nM	> 25000 nM	> 25000 nM	> 25000 nM	> 25000 nM	> 25000 nM	> 25000 nM	> 25000 nM	> 25000 nM	> 25000 nM	> 25000 nM	> 25000 nM	> 25000 nM	> 25000 nM	> 25000 nM	> 25000 nM	> 25000 nM	> 25000 nM
Cc1cc(N(CCC#N)CCC#N)ccc1N=Nc1ccc(C(=O)O)cc1		> 100000 nM		> 100000 nM		> 100000 nM		> 100000 nM		> 100000 nM		> 100000 nM		> 100000 nM		> 100000 nM		> 100000 nM		> 100000 nM
COc1cc2c3c(n(C)c(=O)c2cc1OC)-c1cc2c(cc1/C3=C\CN)OCO2	249 nM	8770 nM	3170 nM	> 45800 nM	156 nM		2170 nM	> 40400 nM	1180 nM	12100 nM	227 nM		3070 nM	86800 nM	621 nM	> 41100 nM	154 nM	59700 nM	1580 nM	14800 nM
Cc1ccccc1N1C(=O)C2C=CC(n3[nH]c(=O)n(Cc4ccccc4)c3=O)CC2C1=O (centres undefined)		> 100000 nM		> 100000 nM		> 100000 nM		> 100000 nM		> 100000 nM		> 100000 nM		> 100000 nM		> 100000 nM		> 100000 nM		> 100000 nM

From PubChem BioAssay (NCI)
